# According to ChEMBL document CHEMBL1909046, “DrugMatrix in vitro pharmacology data”:
# Biological target: T1, Alpha-2A adrenergic receptor (Homo sapiens, UniProt P08913); also: in other assays of this panel Not Active means under 50% inhibition at 10 µM
# T1 sequence (P08913 whole entry): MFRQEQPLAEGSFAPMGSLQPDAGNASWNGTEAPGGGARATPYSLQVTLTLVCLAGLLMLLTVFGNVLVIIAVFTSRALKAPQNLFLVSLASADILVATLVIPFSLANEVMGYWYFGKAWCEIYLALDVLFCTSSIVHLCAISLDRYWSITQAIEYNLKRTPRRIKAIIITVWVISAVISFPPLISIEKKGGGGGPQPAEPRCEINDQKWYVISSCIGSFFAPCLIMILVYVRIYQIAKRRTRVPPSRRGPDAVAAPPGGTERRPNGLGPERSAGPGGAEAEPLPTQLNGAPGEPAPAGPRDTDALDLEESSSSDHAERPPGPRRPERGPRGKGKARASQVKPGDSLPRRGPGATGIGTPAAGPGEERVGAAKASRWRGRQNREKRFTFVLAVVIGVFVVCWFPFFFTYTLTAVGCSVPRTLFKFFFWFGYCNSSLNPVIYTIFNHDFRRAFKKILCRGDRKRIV
# Type: cell membranes, Sf9, Membrane
# Conditions: sf9
row,Structure (SMILES),IC50
1,NS(=O)(=O)c1cc(C2(O)NC(=O)c3ccccc32)ccc1Cl (configuration not stated) [CHLORTHALIDONE],Not Active
2,CC(C)NCC(O)c1ccccc1Cl (configuration not stated) [CLORPRENALINE],Not Active
3,CN1C[C@@H]2C[C@H]1CN2c1cc2c(cc1F)c(=O)c(C(=O)O)cn2C1CC1 [DANOFLOXACIN],Not Active
4,COc1cccc2c1C(=O)c1c(O)c3c(c(O)c1C2=O)C[C@@](O)(C(C)=O)C[C@@H]3O[C@H]1C[C@H](N)[C@H](O)[C@H](C)O1 [DAUNORUBICIN],Not Active
5,O=C(O)c1cc(-c2ccc(F)cc2F)ccc1O [DIFLUNISAL],Not Active
6,C[S+](C)[O-] [DIMETHYL SULFOXIDE],Not Active
7,CC1=NN(c2ccccc2)C(=O)C1 [EDARAVONE],Not Active
8,C[C@]12CC[C@@H]3c4ccc(O)cc4CC[C@H]3[C@@H]1C[C@@H](O)[C@@H]2O [ESTRIOL],Not Active

# Biological target: Beta-1 adrenergic receptor (Homo sapiens, UniProt P08588)
# Sequence (P08588 whole entry): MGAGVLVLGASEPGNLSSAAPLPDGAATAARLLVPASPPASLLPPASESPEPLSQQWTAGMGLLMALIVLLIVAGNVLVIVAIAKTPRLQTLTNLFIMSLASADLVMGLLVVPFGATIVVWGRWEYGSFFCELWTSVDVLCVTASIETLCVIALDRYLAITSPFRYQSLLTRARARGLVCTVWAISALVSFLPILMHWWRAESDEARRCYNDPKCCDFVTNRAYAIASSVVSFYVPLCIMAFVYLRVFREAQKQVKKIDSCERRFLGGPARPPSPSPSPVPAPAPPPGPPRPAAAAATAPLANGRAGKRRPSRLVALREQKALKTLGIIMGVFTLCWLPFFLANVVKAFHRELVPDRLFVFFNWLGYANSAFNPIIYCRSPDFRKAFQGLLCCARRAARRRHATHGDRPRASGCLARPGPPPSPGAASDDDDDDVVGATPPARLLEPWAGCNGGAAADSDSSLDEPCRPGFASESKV
# Assay: DRUGMATRIX: Adrenergic beta1 radioligand binding (ligand: [125I] Cyanopindolol)
# Type: cell membranes, CHO-K1, Membrane
# Conditions: Not Active = under 50% inhibition at 10 µM; read-out: IC50
row,Structure (SMILES),IC50 [µM]
1,CC(C)NCC(O)c1ccccc1Cl (configuration not stated) [CLORPRENALINE],2.59

# Same assay, conditions: Not Active = under 50% inhibition at 10 µM; read-out: Ki
row,Structure (SMILES),Ki [µM]
1,CC(C)NCC(O)c1ccccc1Cl (configuration not stated) [CLORPRENALINE],1.5

# Same assay, conditions: cho-k1; Not Active = under 50% inhibition at 10 µM
row,Structure (SMILES),IC50
1,NS(=O)(=O)c1cc(C2(O)NC(=O)c3ccccc32)ccc1Cl (configuration not stated) [CHLORTHALIDONE],Not Active
2,CN1C[C@@H]2C[C@H]1CN2c1cc2c(cc1F)c(=O)c(C(=O)O)cn2C1CC1 [DANOFLOXACIN],Not Active
3,COc1cccc2c1C(=O)c1c(O)c3c(c(O)c1C2=O)C[C@@](O)(C(C)=O)C[C@@H]3O[C@H]1C[C@H](N)[C@H](O)[C@H](C)O1 [DAUNORUBICIN],Not Active
4,O=C(O)c1cc(-c2ccc(F)cc2F)ccc1O [DIFLUNISAL],Not Active
5,C[S+](C)[O-] [DIMETHYL SULFOXIDE],Not Active
6,CC1=NN(c2ccccc2)C(=O)C1 [EDARAVONE],Not Active
7,C[C@]12CC[C@@H]3c4ccc(O)cc4CC[C@H]3[C@@H]1C[C@@H](O)[C@@H]2O [ESTRIOL],Not Active

# Biological target: C-C chemokine receptor type 2 (Homo sapiens, UniProt P41597); also: in other assays of this panel Not Active means under 50% inhibition at 10 µM
# Sequence (P41597 whole entry): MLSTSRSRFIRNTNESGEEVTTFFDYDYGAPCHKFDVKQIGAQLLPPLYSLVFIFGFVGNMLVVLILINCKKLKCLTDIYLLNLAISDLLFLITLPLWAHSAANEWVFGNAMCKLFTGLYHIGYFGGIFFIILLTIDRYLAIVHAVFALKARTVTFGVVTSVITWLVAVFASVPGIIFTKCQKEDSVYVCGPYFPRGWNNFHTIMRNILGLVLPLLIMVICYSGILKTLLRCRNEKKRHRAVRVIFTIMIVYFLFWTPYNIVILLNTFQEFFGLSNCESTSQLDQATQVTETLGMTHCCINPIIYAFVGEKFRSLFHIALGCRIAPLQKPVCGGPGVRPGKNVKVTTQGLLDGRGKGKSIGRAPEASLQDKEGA
# Type: cell membranes, Membrane
# Conditions: cho-k1
row,Structure (SMILES),IC50
1,NS(=O)(=O)c1cc(C2(O)NC(=O)c3ccccc32)ccc1Cl (configuration not stated) [CHLORTHALIDONE],Not Active
2,CC(C)NCC(O)c1ccccc1Cl (configuration not stated) [CLORPRENALINE],Not Active
3,CN1C[C@@H]2C[C@H]1CN2c1cc2c(cc1F)c(=O)c(C(=O)O)cn2C1CC1 [DANOFLOXACIN],Not Active
4,COc1cccc2c1C(=O)c1c(O)c3c(c(O)c1C2=O)C[C@@](O)(C(C)=O)C[C@@H]3O[C@H]1C[C@H](N)[C@H](O)[C@H](C)O1 [DAUNORUBICIN],Not Active
5,O=C(O)c1cc(-c2ccc(F)cc2F)ccc1O [DIFLUNISAL],Not Active
6,C[S+](C)[O-] [DIMETHYL SULFOXIDE],Not Active
7,CC1=NN(c2ccccc2)C(=O)C1 [EDARAVONE],Not Active
8,C[C@]12CC[C@@H]3c4ccc(O)cc4CC[C@H]3[C@@H]1C[C@@H](O)[C@@H]2O [ESTRIOL],Not Active

# Biological target: T2, Muscarinic acetylcholine receptor M5 (Homo sapiens, UniProt P08912); also: in other assays of this panel Not Active means under 50% inhibition at 10 µM
# T2 sequence (P08912 whole entry): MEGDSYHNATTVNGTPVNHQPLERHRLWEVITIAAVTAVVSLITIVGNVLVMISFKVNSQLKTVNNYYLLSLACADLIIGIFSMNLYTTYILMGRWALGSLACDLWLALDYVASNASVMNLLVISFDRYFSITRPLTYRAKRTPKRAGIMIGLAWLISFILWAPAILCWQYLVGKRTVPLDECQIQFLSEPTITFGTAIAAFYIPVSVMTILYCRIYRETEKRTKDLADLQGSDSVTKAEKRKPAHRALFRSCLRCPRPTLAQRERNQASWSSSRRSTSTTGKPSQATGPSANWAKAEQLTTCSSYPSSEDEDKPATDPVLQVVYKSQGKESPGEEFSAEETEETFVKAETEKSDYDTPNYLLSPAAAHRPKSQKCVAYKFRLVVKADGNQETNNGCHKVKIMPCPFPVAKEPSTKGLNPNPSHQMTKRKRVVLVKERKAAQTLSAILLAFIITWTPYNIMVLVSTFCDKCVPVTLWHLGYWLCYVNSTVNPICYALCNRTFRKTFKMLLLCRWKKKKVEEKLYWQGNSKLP
# Type: cell membranes, CHO-K1, Membrane
# Conditions: cho-k1
row,Structure (SMILES),IC50
1,NS(=O)(=O)c1cc(C2(O)NC(=O)c3ccccc32)ccc1Cl (configuration not stated) [CHLORTHALIDONE],Not Active
2,CC(C)NCC(O)c1ccccc1Cl (configuration not stated) [CLORPRENALINE],Not Active
3,CN1C[C@@H]2C[C@H]1CN2c1cc2c(cc1F)c(=O)c(C(=O)O)cn2C1CC1 [DANOFLOXACIN],Not Active
4,COc1cccc2c1C(=O)c1c(O)c3c(c(O)c1C2=O)C[C@@](O)(C(C)=O)C[C@@H]3O[C@H]1C[C@H](N)[C@H](O)[C@H](C)O1 [DAUNORUBICIN],Not Active
5,O=C(O)c1cc(-c2ccc(F)cc2F)ccc1O [DIFLUNISAL],Not Active
6,C[S+](C)[O-] [DIMETHYL SULFOXIDE],Not Active
7,CC1=NN(c2ccccc2)C(=O)C1 [EDARAVONE],Not Active
8,C[C@]12CC[C@@H]3c4ccc(O)cc4CC[C@H]3[C@@H]1C[C@@H](O)[C@@H]2O [ESTRIOL],Not Active

# Biological target: Epidermal growth factor receptor (Homo sapiens, UniProt P00533)
# Sequence (P00533 whole entry): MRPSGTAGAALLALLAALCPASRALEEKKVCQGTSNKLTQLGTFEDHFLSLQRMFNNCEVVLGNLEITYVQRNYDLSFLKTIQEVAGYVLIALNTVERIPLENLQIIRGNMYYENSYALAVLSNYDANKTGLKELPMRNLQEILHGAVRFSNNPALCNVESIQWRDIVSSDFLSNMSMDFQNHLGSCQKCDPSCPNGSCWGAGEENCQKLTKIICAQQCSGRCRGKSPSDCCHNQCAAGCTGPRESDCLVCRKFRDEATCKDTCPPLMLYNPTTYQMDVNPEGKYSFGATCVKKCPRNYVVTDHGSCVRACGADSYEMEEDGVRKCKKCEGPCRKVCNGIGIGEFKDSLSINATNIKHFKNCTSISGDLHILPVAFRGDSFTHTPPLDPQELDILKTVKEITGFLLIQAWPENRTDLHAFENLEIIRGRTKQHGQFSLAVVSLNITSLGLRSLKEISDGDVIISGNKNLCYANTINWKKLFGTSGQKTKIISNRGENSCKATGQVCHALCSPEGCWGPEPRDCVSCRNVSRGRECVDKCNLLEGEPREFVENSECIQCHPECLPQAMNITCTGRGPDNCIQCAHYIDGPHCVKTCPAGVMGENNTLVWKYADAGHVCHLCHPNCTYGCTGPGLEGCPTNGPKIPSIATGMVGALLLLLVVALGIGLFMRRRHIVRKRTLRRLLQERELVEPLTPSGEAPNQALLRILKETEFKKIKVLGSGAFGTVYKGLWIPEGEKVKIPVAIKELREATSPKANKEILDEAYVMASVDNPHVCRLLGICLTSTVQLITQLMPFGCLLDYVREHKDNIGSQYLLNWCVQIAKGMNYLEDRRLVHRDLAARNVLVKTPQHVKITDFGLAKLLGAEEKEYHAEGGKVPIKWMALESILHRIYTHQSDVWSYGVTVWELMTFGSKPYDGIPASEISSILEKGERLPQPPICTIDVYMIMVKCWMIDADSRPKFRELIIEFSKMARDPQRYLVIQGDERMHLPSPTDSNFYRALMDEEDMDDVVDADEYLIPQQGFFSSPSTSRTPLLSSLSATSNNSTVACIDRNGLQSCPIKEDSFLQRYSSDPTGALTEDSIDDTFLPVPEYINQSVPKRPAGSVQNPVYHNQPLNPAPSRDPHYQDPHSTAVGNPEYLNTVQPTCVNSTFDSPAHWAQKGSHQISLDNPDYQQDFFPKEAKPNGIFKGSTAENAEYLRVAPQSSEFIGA
# Assay: DRUGMATRIX: Protein Tyrosine Kinase, EGF Receptor enzyme inhibition (substrate: Poly(Glu:Tyr))
# Type: cell-based, Insect cells
# Conditions: insect cells; Not Active = under 50% inhibition at 10 µM
row,Structure (SMILES),IC50
1,NS(=O)(=O)c1cc(C2(O)NC(=O)c3ccccc32)ccc1Cl (configuration not stated) [CHLORTHALIDONE],Not Active
2,CC(C)NCC(O)c1ccccc1Cl (configuration not stated) [CLORPRENALINE],Not Active
3,CN1C[C@@H]2C[C@H]1CN2c1cc2c(cc1F)c(=O)c(C(=O)O)cn2C1CC1 [DANOFLOXACIN],Not Active
4,COc1cccc2c1C(=O)c1c(O)c3c(c(O)c1C2=O)C[C@@](O)(C(C)=O)C[C@@H]3O[C@H]1C[C@H](N)[C@H](O)[C@H](C)O1 [DAUNORUBICIN],Not Active
5,O=C(O)c1cc(-c2ccc(F)cc2F)ccc1O [DIFLUNISAL],Not Active
6,C[S+](C)[O-] [DIMETHYL SULFOXIDE],Not Active
7,CC1=NN(c2ccccc2)C(=O)C1 [EDARAVONE],Not Active
8,C[C@]12CC[C@@H]3c4ccc(O)cc4CC[C@H]3[C@@H]1C[C@@H](O)[C@@H]2O [ESTRIOL],Not Active

# Biological target: Cytochrome P450 2C19 (Homo sapiens, UniProt P33261); also: in other assays of this panel Not Active means under 50% inhibition at 10 µM
# Sequence (P33261 whole entry): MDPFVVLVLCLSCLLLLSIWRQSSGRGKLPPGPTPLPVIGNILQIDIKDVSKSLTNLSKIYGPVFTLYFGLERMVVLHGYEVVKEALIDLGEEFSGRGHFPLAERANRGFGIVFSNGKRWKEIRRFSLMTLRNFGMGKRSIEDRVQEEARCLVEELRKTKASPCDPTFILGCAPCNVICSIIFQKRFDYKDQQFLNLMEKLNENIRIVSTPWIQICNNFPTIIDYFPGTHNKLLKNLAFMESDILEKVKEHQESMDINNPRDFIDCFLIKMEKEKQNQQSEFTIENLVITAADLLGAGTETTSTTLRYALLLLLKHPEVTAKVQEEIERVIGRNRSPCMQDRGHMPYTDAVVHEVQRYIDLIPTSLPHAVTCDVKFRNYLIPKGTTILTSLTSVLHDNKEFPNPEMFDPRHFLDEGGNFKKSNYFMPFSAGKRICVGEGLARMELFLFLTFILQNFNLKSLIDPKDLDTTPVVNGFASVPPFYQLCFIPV
# Conditions: bti-tn-5b1-4
Structure (SMILES),IC50,Ki
NS(=O)(=O)c1cc(C2(O)NC(=O)c3ccccc32)ccc1Cl (configuration not stated) [CHLORTHALIDONE],Not Active,Not Active
CC(C)NCC(O)c1ccccc1Cl (configuration not stated) [CLORPRENALINE],Not Active,Not Active
CN1C[C@@H]2C[C@H]1CN2c1cc2c(cc1F)c(=O)c(C(=O)O)cn2C1CC1 [DANOFLOXACIN],Not Active,Not Active
COc1cccc2c1C(=O)c1c(O)c3c(c(O)c1C2=O)C[C@@](O)(C(C)=O)C[C@@H]3O[C@H]1C[C@H](N)[C@H](O)[C@H](C)O1 [DAUNORUBICIN],Not Active,Not Active
O=C(O)c1cc(-c2ccc(F)cc2F)ccc1O [DIFLUNISAL],Not Active,Not Active
C[S+](C)[O-] [DIMETHYL SULFOXIDE],Not Active,Not Active
CC1=NN(c2ccccc2)C(=O)C1 [EDARAVONE],Not Active,Not Active
C[C@]12CC[C@@H]3c4ccc(O)cc4CC[C@H]3[C@@H]1C[C@@H](O)[C@@H]2O [ESTRIOL],Not Active,Not Active
